In patent US11560400B2, “Salts of diphosphate phosphoramidate of nucleosides as anticancer compounds” (NuCana plc, priority 2017, dated 2023):
Structures can show the parent of a compound that is named as a salt. Where two headings read alike, the source gives them in different places.

How the values were obtained:
MCF-7 = assay: CellTiterGlo cell viability assay, MCF-7; type: cell-based; settings: MCF-7, 72 h, percentage inhibition at the highest concentration tested; for inhibition at 198 µM: Homo sapiens, MCF7, 72 h, read-out: Top Inhibit
Method: (§1) A subset of compounds of the invention were assayed for their cytotoxic activity in an array of different solid tumours and haematological malignancies using the following assay.
(§2) In vitro viability assay were performed to assess the effects of compounds on cell viability in selected cell lines over 72 h using the CellTiterGlo (CTG, Promega-G7573) assay. The tests were performed in duplicates with treatment of compounds at 9 points, 3.16 folds titration in 96 well plates over ˜72 h. The compound starting concentrations were 198 μM. Cell viability assay using CellTiterGlo in 96-well plate were performed. Compound treatment 72 h, standard growth conditions, duplicates. Compounds were dissolved to 40 mM with thawed […]. Compounds were serially diluted at 3.16 fold in thawed DMSO, and warmed to 37° C. before being dissolved in media (2 μL+200 μL). After compounds were dissolved in media, media containing compounds were warmed to 37° C. in incubator and then compounds in media were added to cell plates (50 μL+50 μL) in duplicates. The compounds' final concentrations were from 198 μM to 19.8 nM. All compound solubilities were checked and recorded again, then the plates were transferred to CO2 tissue culture incubator immediately and incubated for 3 days. DMSO final concentration is 0.5%. The parent nucleoside in each case was tested as a comparator, as was an exemplary ProTide. The drugs of the ProTide class that were tested were as follows:
(§3) The following cell lines were tested and are referred to in the Table 1 below:
(§4) In Tables 2, 3 and 4, ‘Ab EC50’ refers to the absolute EC50 and ‘Top inhibit’ refers to the percentage inhibition achieved at the highest concentration tested.

HL-60 = assay: CellTiterGlo cell viability assay, HL-60; type: cell-based; settings: HL-60, 72 h; for EC50: read-out: Ab EC50; for Top Inh / inhibition at 198 µM: percentage inhibition at the highest concentration tested; for inhibition at 198 µM: read-out: Top Inh
Method: as §1, §2, §3, §4

HT29 = assay: CellTiterGlo cell viability assay, HT29; type: cell-based; settings: HT29, 72 h; for EC50: read-out: Ab EC50; for Top Inhibit / inhibition at 198 µM: percentage inhibition at the highest concentration tested; for inhibition at 198 µM: read-out: Top Inhibit
Method: as §1, §2, §3, §4

RPMI-8226 = assay: CellTiterGlo cell viability assay, RPMI-8226; type: cell-based, Human; settings: RPMI-8226, 72 h; for EC50: read-out: Ab EC50; for Top Inh / inhibition at 198 µM: percentage inhibition at the highest concentration tested; for inhibition at 198 µM: read-out: Top Inh
Method: as §1, §2, §3, §4

HepG2 = assay: CellTiterGlo cell viability assay, HepG2; type: cell-based; settings: HepG2, 72 h; for EC50: read-out: Ab EC50; for Top Inhibit / inhibition at 198 µM: percentage inhibition at the highest concentration tested; for inhibition at 198 µM: read-out: Top Inhibit
Method: as §1, §2, §3, §4

KG-1 = assay: CellTiterGlo cell viability assay, KG-1; type: cell-based; settings: KG-1, 72 h; for EC50: read-out: Ab EC50; for Top Inhibit / inhibition at 198 µM: percentage inhibition at the highest concentration tested; for inhibition at 198 µM: read-out: Top Inhibit
Method: as §1, §2, §3, §4

CCRF-CEM = assay: CellTiterGlo cell viability assay, CCRF-CEM; type: cell-based; settings: 72 h; for EC50: read-out: Ab EC50; for Top Inh / inhibition at 198 µM: percentage inhibition at the highest concentration tested; for inhibition at 198 µM: read-out: Top Inh
Method: as §1, §2, §3, §4

K562 = assay: CellTiterGlo cell viability assay, K562; type: cell-based; settings: for EC50: read-out: Ab EC50; for Top Inh / inhibition at 198 µM: percentage inhibition at the highest concentration tested; for inhibition at 198 µM: read-out: Top Inh
Method: as §1, §2, §3, §4

OVCAR 3 = assay: CellTiterGlo cell viability assay, OVCAR 3; type: cell-based; settings: for EC50 / Top Inhibit: OVCAR 3, 72 h; for EC50: read-out: Ab EC50; for Top Inhibit / inhibition at 198 µM: percentage inhibition at the highest concentration tested; for inhibition at 198 µM: OVCAR-3, 72 h, read-out: Top Inhibit
Method: as §1, §2, §3, §4

MOLT-4 = assay: CellTiterGlo cell viability assay, MOLT-4; type: cell-based; settings: MOLT-4, 72 h; for EC50: read-out: Ab EC50; for Top Inh / inhibition at 198 µM: percentage inhibition at the highest concentration tested; for inhibition at 198 µM: read-out: Top Inh
Method: as §1, §2, §3, §4

RL = assay: CellTiterGlo cell viability assay, RL; type: cell-based; settings: 72 h; for Top Inh / inhibition at 198 µM: percentage inhibition at the highest concentration tested; for inhibition at 198 µM: Homo sapiens, read-out: Top Inh
Method: as §1, §2, §3, §4

[1] = Homo sapiens, HT-29, 72 h, Table 4 classes
[2] = Homo sapiens, K562, K 562, 72 h, Table 4 classes

Compound	Top Inhibit (MCF-7)	inhibition at 198 µM (MCF-7)	EC50 (HL-60; Homo sapiens, Table 4 classes)	inhibition at 198 µM (HL-60; Homo sapiens)	EC50 (HT29; [1])	inhibition at 198 µM (HT29; Homo sapiens, HT-29, 72 h)	EC50 (RPMI-8226; Homo sapiens, Table 4 classes)	inhibition at 198 µM (RPMI-8226; Homo sapiens)	inhibition at 198 µM (HepG2; Homo sapiens)	EC50 (KG-1; Homo sapiens, Table 4 classes)	inhibition at 198 µM (KG-1; Homo sapiens)	EC50 (CCRF-CEM; Homo sapiens, Table 4 classes)	inhibition at 198 µM (CCRF-CEM; Homo sapiens)	inhibition at 198 µM (K562; Homo sapiens, K562, 72 h)	EC50 (K562; [2])	inhibition at 198 µM (OVCAR 3; Homo sapiens)	EC50 (OVCAR 3; Homo sapiens, Table 4 classes)	inhibition at 198 µM (MOLT-4; Homo sapiens)	EC50 (MOLT-4; Homo sapiens, Table 4 classes)	inhibition at 198 µM (RL)	other results
CC(C)[C@H](NP(=O)(Oc1ccccc1)OP(=O)(O)OC[C@H]1O[C@@H](n2cnc3c(N)nc(Cl)nc32)[C@@H](F)[C@@H]1O)C(=O)OC1CCCCC1.CCN(CC)CC (stereo partly drawn) [Example 12, 2-Chloro-9-(2′-Deoxy-2′-fluoro-β-D-arabinofuranosyl)adenine-5′-O-[phenyl(cyclohexoxy-L-valinyl)] Diphosphate Triethylammonium Salt]	44%																				EC50 (HL-60; absolute EC50, numeric values): 70 nM; Top Inh (HL-60): 96%; EC50 (HT29; absolute EC50, numeric values): 370 nM; Top Inhibit (HT29): 71%; EC50 (RPMI-8226; absolute EC50, numeric values): 39600 nM; Top Inh (RPMI-8226): 79%; EC50 (HepG2; absolute EC50, numeric values): 290 nM; Top Inhibit (HepG2): 54%; EC50 (KG-1; absolute EC50, numeric values): 140 nM; Top Inhibit (KG-1): 91%; EC50 (CCRF-CEM; absolute EC50, numeric values): < 20 nM; Top Inh (CCRF-CEM): 99%; EC50 (K562; K562, 72 h, absolute EC50, numeric values): > 198000 nM; Top Inh (K562; K562, 72 h): 40%; EC50 (OVCAR 3; absolute EC50, numeric values): > 198000 nM; Top Inhibit (OVCAR 3): 41%; EC50 (MOLT-4; absolute EC50, numeric values): 40 nM; Top Inh (MOLT-4): 91%; Top Inh (RL): 47%
COC(=O)[C@H](C)NP(=O)(Oc1ccccc1)OP(=O)(O)OC[C@H]1O[C@@H](n2cnc3c(N)nc(Cl)nc32)[C@H](F)C1O (stereo partly drawn) [Example 16, 2-Chloro-9-(2′-Deoxy-2′-fluoro-β-D-arabinofuranosyl)adenine-5′-O-[1-phenyl(methoxy-L-alaninyl)] Diphosphate Triethylammonium Salt]		47%	< 200 nM	96%	200 to 1000 nM	71%	> 10000 nM	84%	53%	< 200 nM	93%	< 200 nM	99%	33%	> 10000 nM	44%	> 10000 nM	97%	< 200 nM	49%	EC50 (HepG2; Homo sapiens, Table 4 classes): 200 to 1000 nM
CCOC(=O)[C@@H](NP(=O)(Oc1ccccc1)OP(=O)(O)OC[C@H]1O[C@@H](n2cnc3c(N)nc(Cl)nc32)C(F)[C@H]1O)C(C)CC (stereo partly drawn) [Example 25, 2-Chloro-9-(2′-Deoxy-2′-fluoro-β-D-arabinofuranosyl)adenine-5′-O-[l-phenyl(ethoxy-L-isoleucinyl)] Diphosphate Triethylammonium Salt]		43%	< 200 nM	95%	200 to 1000 nM	67%	1000 to 5000 nM	83%	49%	< 200 nM	91%	< 200 nM	99%	33%	> 10000 nM	24%	> 10000 nM	86%	< 200 nM	44%	
COC(=O)[C@H](CCSC)NP(=O)(Oc1ccccc1)OP(=O)(O)OC[C@H]1O[C@@H](n2cnc3c(N)nc(Cl)nc32)C(F)[C@H]1O (stereo partly drawn) [Example 24, 2-Chloro-9-(2′-Deoxy-2′-fluoro-β-D-arabinofuranosyl)adenine-5′-O-[l-phenyl(methoxy-L-metioninyl)] Diphosphate Triethylammonium Salt]		49%	< 200 nM	95%	200 to 1000 nM	70%	> 10000 nM	86%	54%	< 200 nM	91%	< 200 nM	99%	49%	> 10000 nM	67%	> 10000 nM	88%	< 200 nM	39%	EC50 (HepG2; Homo sapiens, Table 4 classes): 1000 to 5000 nM
CCN(CC)CC.C[C@H](NP(=O)(Oc1cccc2ccccc12)OP(O)(=S)OC[C@H]1O[C@@H](n2cnc3c(N)nc(Cl)nc32)[C@@H](F)[C@@H]1O)C(=O)OCc1ccccc1 (stereo partly drawn) [Example 26, 2-Chloro-9-(2′-Deoxy-2′-fluoro-β-D-arabinofuranosyl)adenine-5′-O-[l-naphthyl(benzoxy-L-alaninyl)] phosphorothiol-phosphate Triethylammonium Salt]	44%																				EC50 (HL-60; Table 4 classes): < 200 nM; Top Inh (HL-60): 95%; EC50 (HT29; Table 4 classes): 200 to 1000 nM; Top Inhibit (HT29): 64%; EC50 (RPMI-8226; Table 4 classes): 1000 to 5000 nM; Top Inh (RPMI-8226): 93%; Top Inhibit (HepG2): 49%; EC50 (KG-1; Table 4 classes): < 200 nM; Top Inhibit (KG-1): 91%; EC50 (CCRF-CEM; Table 4 classes): < 200 nM; Top Inh (CCRF-CEM): 99%; EC50 (K562; K 562, 72 h, Table 4 classes): > 10000 nM; Top Inh (K562; K562, 72 h): 69%; EC50 (OVCAR 3; Table 4 classes): > 10000 nM; Top Inhibit (OVCAR 3): 62%; EC50 (MOLT-4; Table 4 classes): < 200 nM; Top Inh (MOLT-4): 84%; EC50 (RL; Table 4 classes, read-out: Ab EC50): > 10000 nM; Top Inh (RL): 56%
